Test results: patent US12178825B2, “Method and compositions for forming a copper-containing complex and uses thereof” (COLD SPRING HARBOR LABORATORY, priority 2017, dated 2024)
Entries after “also recorded” stand apart in the source; their conditions may differ.

Assays:
MEK1 = MEK1 (Homo sapiens, UniProt Q02750); experiment: Cu-binding assay with kinase; conditions: read-out: Kd, copper binding to MEK1
PAK1 [1] = target: T1, PAK1 (Homo sapiens, UniProt Q13153); experiment: Cu-binding assay with kinase; conditions: read-out: Kd, copper binding to PAK1
Experimental: Direct binding assays were performed using radiolabelled copper (64 Cu^2+). Varying concentration of radiolabeled copper (0-10 uM) was incubated with recombinant PAK1 (100 nM). Excess copper was removed by running the samples through a desalting column. The amount of metal bound to the protein was quantitated directly by scintillation counting.

[2] = test system: ATP7B-knockdown HepG2 cells; experiment: Copper-induced toxicity, MTT cell survival; type: cell-based; conditions: copper concentrations greater than 0.5 mM
Experimental: HepG2 cells purchased from ATCC were cultured in RPMI media containing 10% FBS, 5% CO2 at 37 C. Control (AG09319) and Wilson's disease patient-derived fibroblasts (GM00032, GM00033, GM05257, GM12158, GM05798 and GM11778) were obtained from Coriell Biorepository and cultured in DMEM, 10% FBS, 5% CO2 at 37° C.
For cell survival assays, 10,000 cells were seeded in a 96 well plate and cultured until fully confluent (90%). To these cells, ATP7B siRNAs or scrambled siRNA (negative control) purchased from Qiagen and Santa Cruz Biotechnology were transfected. Lipofectamine RNAiMAX reagent (Thermofischer) and siRNAs were diluted into a final volume of 100 μl in Opti-MEM (Gibco). The mixture was incubated at room temperature for 30 min, following which 800 μl of Opti-MEM was added to the mixture. The above transfection solution was overlaid onto cells at a final concentration of 5 nM siRNA. Transfection of HepG2 cells with scrambled siRNA served as negative control. Twelve hours after the transfection, complete media was added to each well. Following which, knockdown efficiency was checked (24 hours later) and cells were exposed to varying concentration of copper (0-1 mM) for 12 h and cell viability was determined using the MTT assay as previously described (37). […]

PAK1 [3] = target: T1, PAK1; experiment: Kinase activity assay (ADP-Glow, MBP substrate); type: biochemical; conditions: in the presence of Cu(II)
Experimental: In brief, recombinant PAK1 (20 nM) or recombinant MEK1 (20 nM) were incubated for 30 min in 180 μl of kinase buffer in the presence or absence of CuSO4 (5 μM). The activity of the kinase was monitored using MBP as substrate by ADP-Glow assay (Promega) as per user's manual.

PTP1B = PTP1B (Homo sapiens, UniProt P18031); experiment: PTP1B inhibition (Ki); type: biochemical
TNBC cells = experiment: Cellular copper levels by ICP-MS; type: cell-based
Experimental: TNBC cells (1×10^6) were plated in a 10-cm culture dish in growth medium. About 24 h after seeding cells, they were untreated or treated with DPM-1001 (2 uM) or DPM-1003 (2 uM) for 2 h. Following which, cells were washed three times with PBS. Then, 215 μl of concentrated nitric acid (BDH Aristar Ultra) was added to each sample and incubated overnight. Samples were boiled at 95° C. for 1 h. and approximately 150 μl of each sample was further diluted in 2 ml 2% nitric acid (made freshly from concentrated nitric acid and Milli-Q water). Samples were analyzed on a Thermo Fisher iCAP Qc ICP mass spectrometer in kinetic energy discrimination (KED) mode against a calibration curve of known copper and phosphorus concentrations, with Ga (20 μg/l, Inorganic Ventures) as an internal standard. Each experiment was carried out twice and each condition was repeated in at least triplicate.

MDA-MB-231 cells = experiment: MDA-MB-231 orthotopic xenograft; type: in vivo, SCID-beige mice; conditions: mice with TNBC xenograft, 5 mg/kg intraperitoneally every day
Experimental: MDA-MB-231 cells (2×10^6) were injected orthotopically into mammary fat pads of SCID-beige mice (Tectonic lab) in 15 μl of a 1:1 mixture with DMEM and growth factor-reduced Matrigel (BD Biosciences). The animals were randomly assigned to three groups to receive saline (control), DPM-1001 (5 mg/kg) or DPM-1003 (5 mg/kg) intraperitoneally everyday once the tumors reached about 200 mm^3. Tumor growth was monitored every third day and volume in mm^3 was measured three times weekly by palpation using the formula: volume=width^2×length/2. Once the tumor volume reached above 500 mm^3 in saline treated mice, the study was terminated. Tumors from all mice were removed for biochemical analysis.

TX mice = experiment: Tissue and fecal copper levels (ICP-MS, rhodanine staining); type: in vivo, mouse; conditions: TX mice, ICP-MS
Experimental: C3He-Atp7b^tx-j were obtained from the Jackson laboratory. All animal experiments were performed according to protocols approved by the Institutional Animal Use and Care Committee of Cold Spring Harbor laboratory. Mice were injected intraperitoneally (i.p.) with vehicle, or administered DPM-1001 intraperitoneally or orally at 5 mg/kg once every third day, for over a year. At the end of the study animals were euthanized and tissue samples were removed for biochemical studies.
Tissue samples from wild-type or TX mice treated with saline, DPM-1001 or tetrathiomolybdate was washed three times with PBS containing 1 mM EDTA (to remove nonspecifically bound copper). Then, 215 μl of concentrated nitric acid (BDH Aristar Ultra) was added to each sample and incubated overnight. Samples were boiled at 95° C. for 1 h. and approximately 150 μl of each sample was further diluted in 2 ml 2% nitric acid (made freshly from concentrated nitric acid and Milli-Q water) Samples were analyzed on a Thermo Fisher iCAP Qc ICP mass spectrometer in kinetic energy discrimination (KED) mode against a calibration curve of known copper and phosphorus concentrations, with Ga (20 μg/l, Inorganic Ventures) as an internal standard, Each experiment was carried out twice and each condition was repeated in at least triplicate.
Liver tissues from wild-type and TX mice from untreated and DPM-1001-treated mice were sectioned and stained with H&E or rhodanine. Whole-slide, digitized images of H&E-stained tissue were captured using the Aperio ScanScope XT automated scanning system (Vista, CA). Image J software was used to quantitate rhodanine staining.

[4] = Direct copper-binding assay with radiolabelled copper
Experimental: Direct binding assays were performed using radiolabelled copper (64 Cu^2+). Varying concentration of radiolabeled copper (0-100 nM) was incubated with DPM-1001 (100 nM). Excess copper was removed by running the samples through a desalting column. The amount of metal bound to the compound was quantitated directly by scintillation counting. For assays with the protein, His-tagged PTP1B (100 nM) was incubated with varying concentrations of Cu-DPM-1001 complex for 60 min in assay buffer (50 mM Hepes, 100 mM NaCl, 0.1% BSA pH 6.5) at 25° C. Protein-bound and free compound were separated by incubating the protein-inhibitor mixture with 50 μl of 50% Ni-NTA beads for 10 min at 25° C. The beads were washed with assay buffer containing 150 mM NaCl and 25 mM Imidazole three times, and the inhibitor bound to protein was determined by scintillation counting. The amount of bead-bound protein was estimated by BCA protein quantification.
Direct binding assays were performed using radiolabelled copper (64 Cu^2+). […] The amount of metal bound to the compound was quantitated directly by scintillation counting. […] The inhibitor bound to protein was determined by scintillation counting. The amount of bead-bound protein was estimated by BCA protein quantification. For protein quantitation the bead bound protein was precipitated with TCA (25% final) on ice for 30 minutes. […]

[5] = ESI-MS analysis of complex formation with a series of other metal ions; type: binding; conditions: panel of metals
Experimental: Eight equivalents of M(NO3)2·xH2O or MSO4·xH2O were reacted with 1 eq. of DPM-1001, DPM-1003 or analog 2 (1 mM in H2O). The reaction solutions were stirred at RT, 40° C. and 80° C. for 2 h. Each sample was diluted 5-fold in 50% methanol, 0.1% formic acid and loaded into a 500 μL syringe. A Thermo Vantage triple quadrupole mass spectrometer (Thermo Scientific), equipped with an HESI spray source was coupled to an Accela HPLC system (Thermo Scientific). Mobile phase A consisted of 0.1% formic acid and mobile phase B consisted of 0.1% formic acid in methanol. Isocratic flow was set to 50% B at 200 μL/min. 200 μl samples were injected into the LC flow line via syringe pump at 10 μL/min and electrosprayed into the Vantage triple quadrupole mass spectrometer. A spray voltage of 4.3 kV was used along with a capillary temperature of 350° C. Each full MS scan was 0.5 s and data were collected with a scan range of 200 m/z to 900 m/z over 1 min.

non-TNBC cell lines = experiment: MTT cell survival, non-TNBC cell lines; type: cell-based
Experimental: (§1) The MTT assay was used to evaluate cell survival in the absence and presence of different compounds. The thiazolyl blue tetrazolium bromide (MTT) was dissolved in phosphate buffered saline (PBS) at a concentration of 5 mg/ml, filtered, and stored at 4° C. About 10,000 cells were seeded into a 96-well plate and cultured in growth medium containing serum. After 24 hours, cells were treated with the indicated concentrations of DPM-1001 or DPM-1003 (0-100 uM) for 2 hrs. Following which 20 μl MTT was added into each well. An ELISA plate reader (Biotek, Winooski, Vermont, USA) was used to measure the optical density at 490 nm.

[6] = test system: triple-negative breast cancer (TNBC) cell lines; experiment: MTT cell survival, triple-negative breast cancer cell lines; type: cell-based
Experimental: as §1

T1 sequence (Q13153 whole entry): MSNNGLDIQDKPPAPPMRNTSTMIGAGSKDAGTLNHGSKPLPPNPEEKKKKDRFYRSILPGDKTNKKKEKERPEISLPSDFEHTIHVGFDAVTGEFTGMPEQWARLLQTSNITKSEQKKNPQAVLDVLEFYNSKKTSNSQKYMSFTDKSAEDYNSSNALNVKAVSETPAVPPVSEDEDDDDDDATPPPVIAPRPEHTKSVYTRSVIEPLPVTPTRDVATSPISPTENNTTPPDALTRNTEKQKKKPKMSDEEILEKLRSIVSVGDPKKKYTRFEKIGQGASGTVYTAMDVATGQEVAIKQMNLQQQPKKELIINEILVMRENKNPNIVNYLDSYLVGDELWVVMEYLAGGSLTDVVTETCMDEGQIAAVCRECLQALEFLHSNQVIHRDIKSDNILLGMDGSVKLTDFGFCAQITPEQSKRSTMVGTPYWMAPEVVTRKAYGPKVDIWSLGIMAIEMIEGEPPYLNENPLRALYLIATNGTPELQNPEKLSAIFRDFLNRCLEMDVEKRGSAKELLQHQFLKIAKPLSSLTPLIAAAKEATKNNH
Sequence of MEK1 (Q02750 whole entry): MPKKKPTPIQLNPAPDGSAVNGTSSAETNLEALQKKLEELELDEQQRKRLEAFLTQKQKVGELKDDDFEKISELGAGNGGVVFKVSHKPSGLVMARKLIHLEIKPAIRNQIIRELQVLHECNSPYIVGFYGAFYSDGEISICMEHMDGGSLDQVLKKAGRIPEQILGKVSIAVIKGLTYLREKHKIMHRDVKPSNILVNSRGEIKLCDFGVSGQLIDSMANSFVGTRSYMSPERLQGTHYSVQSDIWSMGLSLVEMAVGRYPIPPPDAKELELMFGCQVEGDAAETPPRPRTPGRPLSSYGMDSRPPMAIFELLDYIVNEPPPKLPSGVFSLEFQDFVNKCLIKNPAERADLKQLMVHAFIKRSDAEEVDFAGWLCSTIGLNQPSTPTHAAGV
Sequence of PTP1B (P18031 whole entry, species assumed): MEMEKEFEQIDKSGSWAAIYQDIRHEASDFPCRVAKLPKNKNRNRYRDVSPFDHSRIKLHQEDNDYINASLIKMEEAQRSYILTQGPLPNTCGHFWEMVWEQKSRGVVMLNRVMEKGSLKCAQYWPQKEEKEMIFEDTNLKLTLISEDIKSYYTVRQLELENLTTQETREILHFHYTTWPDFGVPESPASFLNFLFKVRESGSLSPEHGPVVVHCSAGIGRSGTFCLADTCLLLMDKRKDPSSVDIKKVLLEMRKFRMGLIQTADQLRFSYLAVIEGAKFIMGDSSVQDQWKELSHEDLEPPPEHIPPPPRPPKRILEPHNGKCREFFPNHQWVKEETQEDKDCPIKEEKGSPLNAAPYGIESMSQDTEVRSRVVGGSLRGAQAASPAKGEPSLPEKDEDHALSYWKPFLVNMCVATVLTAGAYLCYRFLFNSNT

| SMILES | Kd (MEK1) [nM] | Kd (PAK1 [1]) [nM] | survival of ATP7B-KD1 [2] | Vmax of PAK1 kinase activity (PAK1 [3]) | Ki (PTP1B) [nM] | cellular copper levels (TNBC cells) | tumor volume / tumor size (MDA-MB-231 cells) | copper levels in liver and brain (TX mice) | binding to copper (in words) [4] | complex formation with other metals [5] | survival of non-TNBC cell lines, DPM-1001 versus DPM-1003 (non-TNBC cell lines) | survival of triple-negative breast cancer cells [6] |
| --- | --- | --- | --- | --- | --- | --- | --- | --- | --- | --- | --- | --- |
| [Cu+2] [copper] | 5 | 15 | less than 20% | 834.4 |  |  |  |  |  |  |  |  |
| COC(=O)CCC(C)C1CCC2C3C(O)CC4CC(NCCCCNCc5cccnc5)CCC4(C)C3CCC12C (stereo not drawn) [DPM-1003] |  |  |  |  | 2000 | does not reduce copper levels | without effect; also recorded: not by DPM-1003; also recorded: did not reduce tumor size or inhibit tumor growth | did not affect levels of copper in liver tissue; also recorded: did not suppress the levels of the metal in liver | does not bind copper with high affinity; also recorded: limited binding; also recorded: does not bind with high affinity to or form a complex with copper | limited binding | did not differ from each other | did not affect survival; also recorded: does not inhibit the survival |
